This note sets out measurements from patent US11161844B2, “Cyclic substituted imidazo[4,5-c]quinoline derivatives” (Pfizer Inc., priority 2017, dated 2021).

Where only a bound is given, the exact number is not on record here.

Test [1] has as its target LRRK2, WT (GST-tagged truncated LRRK2) (Homo sapiens (Human), UniProt Q5S007). Briefly: LRRK2 kinase assay (Lantha Screen), wild type. The format is biochemical. To be noted: 100 nM LRRKtide, 1 mM ATP, 2 μg/mL enzyme; geometric mean of 2-4 determinations unless otherwise indicated. The method, then: (§1) LRRK2 kinase activity was measured using Lantha Screen technology from Invitrogen. GST-tagged truncated LRRK2 from Invitrogen (Cat #PV4874) was incubated with a fluorescein-labeled peptide substrate based upon ezrin/radixin/moesin (ERM), also known as LRRKtide (Invitrogen cat #PR8976A), in the presence of a dose response of compound. Upon completion, the assay was stopped and detected with a terbium labeled anti-phospho-ERM antibody (Invitrogen, cat #PR8975A). The assay was carried out under the following protocol: The compound dose response was prepared by diluting compound to a top concentration of 0.3 mM in 100% DMSO and serial diluted by half-log in DMSO to give an 11 point curve, 100× final assay concentration. Using Echo acoustic dispensing, 60 nL of compound was transferred to a low volume Corning 384-well assay plate. 3 μL of a working solution of substrate (200 nM LRRKtide, 2 mM ATP) prepared in assay buffer (50 mM HEPES, pH 7.5, 3 mM MgCl2, with 2 mM DTT and 0.01% Brij35 added fresh) was added to the 60 nL compound assay plate. The kinase reaction was started with 3 μL of a working solution of LRRK2 enzyme at a concentration of 4 μg/mL. The final reaction concentrations were 100 nM LRRKtide, 1 mM ATP, 2 μg/mL LRRK2 enzyme and a compound dose response with a top dose of 3 μM. The reaction was allowed to progress at room temperature for 30 minutes and then stopped with the addition of 6 μL of detection buffer (20 mM Tris pH 7.6, 0.01% NP-40, 6 mM EDTA with 2 nM terbium labeled anti-phospho-ERM). After an incubation of 1 hour at room temperature, the plate was read on an Envision with an excitation wavelength of 340 nm and a reading emission at both 520 nm and 495 nm. The ratio of the 520 nm and 495 nm emission was used to analyze the data. Inhibition of mutant G2019S LRRK2 (Invitrogen cat #PV4881) was measured in the exact same method. All final concentrations of substrate ATP and enzyme were the same.

Another test deals with mutant G2019S LRRK2 (Homo sapiens (Human), UniProt Q5S007, G2019S). The test can be described thus: LRRK2 kinase assay (Lantha Screen), mutant G2019S. The format is biochemical. To be noted: 100 nM LRRKtide, 1 mM ATP, 2 μg/mL enzyme; single determination unless otherwise indicated. How it is done:
as §1

LRRK2, WT (GST-tagged truncated LRRK2), sequence (Q5S007 970-2527): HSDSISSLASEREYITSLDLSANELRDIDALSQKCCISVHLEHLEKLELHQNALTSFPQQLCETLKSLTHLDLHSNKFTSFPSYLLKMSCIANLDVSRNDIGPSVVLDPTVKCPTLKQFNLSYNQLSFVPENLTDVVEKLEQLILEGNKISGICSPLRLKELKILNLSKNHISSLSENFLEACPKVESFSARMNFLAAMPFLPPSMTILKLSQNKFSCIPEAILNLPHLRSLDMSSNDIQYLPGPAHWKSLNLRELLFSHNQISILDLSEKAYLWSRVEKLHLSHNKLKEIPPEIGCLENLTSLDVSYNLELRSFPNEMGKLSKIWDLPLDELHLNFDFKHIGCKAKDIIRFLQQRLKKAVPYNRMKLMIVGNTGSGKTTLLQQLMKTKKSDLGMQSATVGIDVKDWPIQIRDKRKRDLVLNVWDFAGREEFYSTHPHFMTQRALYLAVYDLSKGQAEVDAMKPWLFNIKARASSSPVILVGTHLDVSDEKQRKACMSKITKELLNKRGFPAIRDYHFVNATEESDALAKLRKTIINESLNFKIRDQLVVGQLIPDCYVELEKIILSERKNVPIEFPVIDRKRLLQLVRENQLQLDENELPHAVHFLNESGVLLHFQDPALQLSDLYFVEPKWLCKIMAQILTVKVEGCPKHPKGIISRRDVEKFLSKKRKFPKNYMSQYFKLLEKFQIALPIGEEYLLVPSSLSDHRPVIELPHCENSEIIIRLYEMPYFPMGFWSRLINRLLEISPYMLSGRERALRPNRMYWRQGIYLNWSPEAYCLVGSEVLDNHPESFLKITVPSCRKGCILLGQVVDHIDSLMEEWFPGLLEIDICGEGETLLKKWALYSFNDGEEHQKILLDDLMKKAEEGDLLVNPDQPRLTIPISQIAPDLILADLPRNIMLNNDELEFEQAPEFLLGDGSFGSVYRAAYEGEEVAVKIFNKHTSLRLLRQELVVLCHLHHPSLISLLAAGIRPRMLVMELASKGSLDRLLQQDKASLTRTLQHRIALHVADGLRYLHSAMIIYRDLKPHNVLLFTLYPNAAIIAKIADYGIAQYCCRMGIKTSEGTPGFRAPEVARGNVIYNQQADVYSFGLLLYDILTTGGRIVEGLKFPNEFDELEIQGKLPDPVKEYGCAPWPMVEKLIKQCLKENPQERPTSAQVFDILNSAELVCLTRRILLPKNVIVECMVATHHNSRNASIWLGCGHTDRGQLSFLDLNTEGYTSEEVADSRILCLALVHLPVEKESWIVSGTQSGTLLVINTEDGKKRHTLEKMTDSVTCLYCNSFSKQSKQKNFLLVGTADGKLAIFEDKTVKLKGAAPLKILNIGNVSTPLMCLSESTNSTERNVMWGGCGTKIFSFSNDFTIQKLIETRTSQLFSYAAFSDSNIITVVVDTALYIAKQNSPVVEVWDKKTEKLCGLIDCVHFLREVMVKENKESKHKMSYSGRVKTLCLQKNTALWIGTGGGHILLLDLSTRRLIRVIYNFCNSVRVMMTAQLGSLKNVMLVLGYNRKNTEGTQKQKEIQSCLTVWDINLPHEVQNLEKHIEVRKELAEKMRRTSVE
mutant G2019S LRRK2, sequence (Q5S007 970-2527 G2019S): as the sequence (Q5S007 970-2527) above, with G1050S counted along it

Regarding `C[C@@H]1C[C@H](n2c(C3CCC(F)C3)nc3cnc4ccc(C#N)cc4c32)CCO1` (single isomer, unassigned) [Example 13], the IC50 in test [1] was determined as 6.29 nM; on mutant G2019S LRRK2 it was 3.84 nM.

Regarding `N#CC[C@@H]1C[C@H](n2c(C3CC(F)(F)C3)nc3cnc4ccc(Cl)cc4c32)CCO1` (single isomer, unassigned) [Example 27, {cis-4-[8-chloro-2-(3,3-difluorocyclobutyl)-1H-imidazo[4,5-c]quinolin-1-yl]tetrahydro-2H-pyran-2-yl}acetonitrile], the IC50 in test [1] amounted to 12 nM; against mutant G2019S LRRK2, 12.2 nM. As for `C[C@@H]1C[C@H](n2c3c(cnc4ccc(Cl)cc43)nc2[C@H]2CC[C@@H](F)CC2)CCO1` [Example 1, 8-chloro-2-(cis-4-fluorocyclohexyl)-1-[(2R,4R)-2-methyltetrahydro-2H-pyran-4-yl]-1H-imidazo[4,5-c]quinoline], the IC50 in test [1] came out at 7.32 nM; against mutant G2019S LRRK2, 4.75 nM. In the case of `C[C@@H]1C[C@H](n2c3c(cnc4ccc(Cl)cc43)nc2[C@H]2C[C@@H](F)C2)CCO1` [Example 2, 8-chloro-2-(cis-3-fluorocyclobutyl)-1-[(2R,4R)-2-methyltetrahydro-2H-pyran-4-yl]-1H-imidazo[4,5-c]quinoline], the values for the IC50 (in test [1]; on mutant G2019S LRRK2) were 8.99 nM and 5.49 nM, respectively. Regarding `C[C@@H]1C[C@H](n2c(C3CC(C)(F)C3)nc3cnc4ccc(Cl)cc4c32)CCO1` (stereo partly drawn) [Example 3, 8-chloro-2-(cis-3-fluoro-3-methylcyclobutyl)-1-[(2R,4R)-2-methyltetrahydro-2H-pyran-4-yl]-1H-imidazo[4,5-c]quinoline], the IC50 was determined as 6.81 nM in test [1] and 5.44 nM on mutant G2019S LRRK2. For the compound `C[C@@H]1C[C@H](n2c([C@H]3CCOC3)nc3cnc4ccc(Cl)cc4c32)CCO1` [Example 4, 8-chloro-1-[(2R,4R)-2-methyltetrahydro-2H-pyran-4-yl]-2-[(3R)-tetrahydrofuran-3-yl]-1H-imidazo[4,5-c]quinoline], the IC50 stood at 12.3 nM in test [1] and 7.4 nM on mutant G2019S LRRK2.

In the case of `C[C@@H]1C[C@H](n2c(C3CC(C)(F)C3)nc3cnc4ccc(Cl)cc4c32)CCO1` (stereo partly drawn) [Example 5, 8-chloro-2-(3-fluoro-3-methylcyclobutyl)-1-[(2R,4R)-2-methyltetrahydro-2H-pyran-4-yl]-1H-imidazo[4,5-c]quinoline], the IC50 in test [1] amounted to 16.4 nM; at mutant G2019S LRRK2 it was 17.2 nM. Regarding `CO[C@H]1C[C@@H](c2nc3cnc4ccc(Cl)cc4c3n2[C@@H]2CCO[C@H](C)C2)C1` [Example 6, 8-chloro-2-(cis-3-methoxycyclobutyl)-1-[(2R,4R)-2-methyltetrahydro-2H-pyran-4-yl]-1H-imidazo[4,5-c]quinoline], the IC50 is 19.1 nM in test [1] and 11.9 nM against mutant G2019S LRRK2. As for `C[C@@H]1C[C@H](n2c(C3CCOCC3)nc3cnc4ccc(Cl)cc4c32)CCO1` [Example 7, 8-chloro-1-[(2R,4R)-2-methyltetrahydro-2H-pyran-4-yl]-2-(tetrahydro-2H-pyran-4-yl)-1H-imidazo[4,5-c]quinoline], the figures for the IC50 (in test [1]; against mutant G2019S LRRK2) were 16.3 nM and 18.2 nM, respectively. The corresponding values for `C[C@@H]1C[C@H](n2c(C3CCC(F)(F)CC3)nc3cnc4ccc(Cl)cc4c32)CCO1` [Example 8, 8-chloro-2-(4,4-difluorocyclohexyl)-1-[(2R,4R)-2-methyltetrahydro-2H-pyran-4-yl]-1H-imidazo[4,5-c]quinoline] are 15.9 nM and 12.1 nM. The corresponding values for `C[C@@H]1C[C@H](n2c(C3CCCO3)nc3cnc4ccc(Cl)cc4c32)CCO1` (stereo partly drawn) [Example 9, 8-chloro-1-[(2R,4R)-2-methyltetrahydro-2H-pyran-4-yl]-2-(tetrahydrofuran-2-yl)-1H-imidazo[4,5-c]quinoline] are 18.5 nM and 11.3 nM. On to `CC1CC(c2nc3cnc4ccc(Cl)cc4c3n2[C@@H]2CCO[C@H](C)C2)CO1` (stereo partly drawn) [Example 10, 8-chloro-2-(5-methyltetrahydrofuran-3-yl)-1-[(2R,4R)-2-methyltetrahydro-2H-pyran-4-yl]-1H-imidazo[4,5-c]quinoline], for which the concentration for half-maximal inhibition (IC50) was 23.1 nM in test [1] and 23.3 nM at mutant G2019S LRRK2.

Regarding `C[C@@H]1C[C@H](n2c([C@H]3CCOC3)nc3cnc4ccc(C(F)F)cc4c32)CCO1` [Example 21, 8-(difluoromethyl)-1-((2R,4R)-2-methyltetrahydro-2H-pyran-4-yl)-2-((R)-tetrahydrofuran-3-yl)-1H-imidazo[4,5-c]quinoline], the 50% inhibitory concentration (IC50) in test [1] was determined as 16.6 nM. On the same count and under the same terms, next, `C[C@@H]1C[C@H](n2c(C3CCC(F)C3)nc3cnc4ccc(F)cc4c32)CCO1` (stereo partly drawn) [Example 37, 8-fluoro-2-[trans-3-fluorocyclopentyl]-1-[(2R,4R)-2-methyltetrahydro-2H-pyran-4-yl]-1H-imidazo[4,5-c]quinoline]: 200 nM; `C[C@@H]1C[C@H](n2c(C3CCC(F)C3)nc3cnc4ccc(F)cc4c32)CCO1` (stereo partly drawn) [Example 38, 8-fluoro-2-[trans-3-fluorocyclopentyl]-1-[(2R,4R)-2-methyltetrahydro-2H-pyran-4-yl]-1H-imidazo[4,5-c]quinoline]: 202 nM. The same measure, in the same setting: next, `N#Cc1ccc2ncc3nc([C@H]4C[C@H](F)C4)n(C4CCOCC4(F)F)c3c2c1` (stereo partly drawn) [Example 45, 1-(3,3-difluorotetrahydro-2H-pyran-4-yl)-2-(trans-3-fluorocyclobutyl)-1H-imidazo[4,5-c]quinoline-8-carbonitrile]: 2140 nM. With `CO[C@H]1C[C@H](c2nc3cnc4ccc(C#N)cc4c3n2C2CCOCC2(F)F)C1` (stereo partly drawn) [Example 50, 1-(3,3-difluorotetrahydro-2H-pyran-4-yl)-2-(trans-3-methoxycyclobutyl)-1H-imidazo[4,5-c]quinoline-8-carbonitrile], in test [1], the IC50 was above 3000 nM.

In test [1], `CO[C@H]1C[C@H](c2nc3cnc4ccc(C#N)cc4c3n2C2CCOCC2(F)F)C1` (stereo partly drawn) [Example 51, 1-(3,3-difluorotetrahydro-2H-pyran-4-yl)-2-(trans-3-methoxycyclobutyl)-1H-imidazo[4,5-c]quinoline-8-carbonitrile] yielded an IC50 of 272 nM. That is a sub-micromolar value. Regarding `CC1(C)C[C@H](n2c([C@H]3CC[C@H](F)C3)nc3cnc4ccc(C#N)cc4c32)CCO1` [Example 53, 1-[(4R)-2,2-dimethyltetrahydro-2H-pyran-4-yl]-2-[(1S,3S)-3-fluorocyclopentyl]-1H-imidazo[4,5-c]quinoline-8-carbonitrile], the IC50 in test [1] was determined as 413 nM. The compound `CC1(C)C[C@H](n2c([C@@H]3CC[C@H](F)C3)nc3cnc4ccc(C#N)cc4c32)CCO1` [Example 54, 1-[(4R)-2,2-dimethyltetrahydro-2H-pyran-4-yl]-2-[(1R,3S)-3-fluorocyclopentyl]-1H-imidazo[4,5-c]quinoline-8-carbonitrile] came in with an IC50 in test [1] above 3000 nM.

Regarding `CC1(C)C[C@H](n2c([C@@H]3CC[C@@H](F)C3)nc3cnc4ccc(C#N)cc4c32)CCO1` [Example 55, 1-[(4R)-2,2-dimethyltetrahydro-2H-pyran-4-yl]-2-[(1R,3R)-3-fluorocyclopentyl]-1H-imidazo[4,5-c]quinoline-8-carbonitrile], it took 2520 nM to reach half-maximal inhibition in test [1] (IC50). This lies in the single-digit micromolar range. `CC1(C)C[C@H](n2c([C@H]3CC[C@@H](F)C3)nc3cnc4ccc(C#N)cc4c32)CCO1` [Example 56, 1-[(4R)-2,2-dimethyltetrahydro-2H-pyran-4-yl]-2-[(1S,3R)-3-fluorocyclopentyl]-1H-imidazo[4,5-c]quinoline-8-carbonitrile] returned a 50% inhibitory concentration (IC50) in test [1] above 3000 nM. Compound `CN1CC(n2c(C3CCC(F)C3)nc3cnc4ccc(C#N)cc4c32)C(F)(F)C1` (centres unmarked) [Example 61, 1-(4,4-difluoro-1-methylpyrrolidin-3-yl)-2-(3-fluorocyclopentyl)-1H-imidazo[4,5-c]quinoline-8-carbonitrile] yielded an IC50 in test [1] of 464 nM. This counts as sub-micromolar.

`CN1CC(n2c(C3CCC(F)C3)nc3cnc4ccc(C#N)cc4c32)C(F)(F)C1` (centres unmarked) [Example 62, 1-(4,4-difluoro-1-methylpyrrolidin-3-yl)-2-(3-fluorocyclopentyl)-1H-imidazo[4,5-c]quinoline-8-carbonitrile]: the IC50 in test [1] was above 3000 nM.

In the case of `CN1CC(n2c(C3CCC(F)C3)nc3cnc4ccc(C#N)cc4c32)C(F)(F)C1` (centres unmarked) [Example 63, 1-(4,4-difluoro-1-methylpyrrolidin-3-yl)-2-(3-fluorocyclopentyl)-1H-imidazo[4,5-c]quinoline-8-carbonitrile], the IC50 in test [1] was above 1840 nM. In turn, `CN1CC(n2c(C3CCC(F)C3)nc3cnc4ccc(C#N)cc4c32)C(F)(F)C1` (centres unmarked) [Example 64, 1-(4,4-difluoro-1-methylpyrrolidin-3-yl)-2-(3-fluorocyclopentyl)-1H-imidazo[4,5-c]quinoline-8-carbonitrile] yielded an IC50 in test [1] of 2300 nM.
